pIC50: −log10 of the molar value.

Our source for the IC50 values is patent publication US9187415B2, “Sulfonamides as HIV protease inhibitors” (Merck Canada Inc., priority 2010, dated 2015).

The target in the assay is T1, HIV-1 protease (wild type) (Human immunodeficiency virus type 1 group M subtype B, UniProt P04585).
T1 construct: made in house; host or cells: Escherichia coli
The assay is described as follows: Protease Inhibition Assay (Pepcleave), inhibition of microbial expressed HIV protease. Particulars: wild-type HIV-1 protease; mean of at least two independent experiments; read-out: Pepcleave Enzyme inhibition IC50. It is filed as biochemical. As to the method:
Assay for Inhibition of Microbial Expressed HIV Protease
Inhibition studies of the reaction of the protease (which was expressed in Eschericia coli) with a peptide substrate [Val-Ser-Gln-Asn-(betanaphtyl)Ala-Pro-Ile-Val]. The inhibitor is first preincubated with the HIV-1 protease (wild type) enzyme in assay buffer (50 mM sodium acetate, pH 5.5, 100 mM NaCl, and 0.1% BSA) for 30 minutes at room temperature. Substrate is added to 400 micromolar in a total volume of 80 microliters containing 10 picomolar HIV-1 protease and the reaction is incubated for 1 hour at 30° C. The reaction is quenched with the addition of 120 microliters of 10% phosphoric acid. The product formation is determined after separation of product and substrate on a Zorbax Eclipse XDB-C18 column connected to an Agilent 1100 high performance liquid chromatography system with fluorescence detection (excitation 270 nanometer and emission 330 nanometer). Alternatively, the inhibitor is preincubated with enzyme and substrate as described above, but in a total volume of 20 microliters containing 20 picomolar HIV-1 protease and the reaction is incubated for 1 hour at 30° C. The reaction is quenched with the addition of 30 microliters of 1 micromolar indinavir (indinavir is also used as an internal standard), and the product formation is determined after separation of product and substrate on a Zorbax Eclipse XDB-C18 column connected to an API 4000 mass spectrometer (Applied Biosystems) with multiple reaction monitoring (transitions were 644.5/428.9 and 615.4/422.2 (M1/M3) for product and indinavir respectively). The extent of inhibition of the reaction is determined from the peak area of the products. HPLC of the products, independently synthesized, provided quantitation standards and confirmation of the product composition.
Protease Inhibition Assay (“Pepcleave”) data were collected based on the wild-type HIV-1 protease enzyme. The assay monitors the cleavage of a 8-mer peptide (VSQN[β-Nal]PIV) where the tyrosine at P1 position is replaced by β-Naphthyl-alanine. Upon cleavage of the peptide by HIV-1 protease, the product is separated from substrate by HPLC column and detected at Ex.=270 nm/Em=330 nm.
As a reminder, the pIC50 is the negative decadic logarithm of the IC50, by convention in mol/L. As to `COC(=O)N[C@H](C(=O)Nc1ccccc1CC[C@@H](CO)N(CC(C)C)S(=O)(=O)c1ccc2ncsc2c1)C(c1ccccc1)c1ccccc1` [Example 7, N-(2-{(3S)-3-[(1,3-benzothiazol-6-ylsulfonyl)(2-methylpropyl)amino]-4-hydroxybutyl}phenyl)-Nα-(methoxycarbonyl)-β-phenyl-L-phenylalaninamide], the pIC50 is 8.80.
For `COC(=O)N[C@@H](Cc1ccccc1Cl)C(=O)Nc1ccccc1CC[C@@H](CO)N(CCC(C)C)S(=O)(=O)c1ccc2ncsc2c1` [Example 16, N-(2-{(3S)-3-[(1,3-benzothiazol-6-ylsulfonyl)(3-methylbutyl)amino]-4-hydroxybutyl}phenyl)-2-chloro-Nα-(methoxycarbonyl)-L-phenylalaninamide] the value was 8.09; for `COC(=O)N[C@@H](Cc1ccccc1Cl)C(=O)Nc1ccccc1CC[C@@H](CO)N(Cc1cn(C)nc1C)S(=O)(=O)c1ccc2ncsc2c1` [Example 17, N-{2-[(3S)-3-{(1,3-benzothiazol-6-ylsulfonyl)[(1,3-dimethyl-1H-pyrazol-4-yl)methyl]amino}-4-hydroxybutyl]phenyl}-2-chloro-Nα-(methoxycarbonyl)-L-phenylalaninamide], 8.00; for `[2H]C([2H])(c1ccccc1NC(=O)[C@@H](NC(=O)OC)C(c1ccccc1)c1ccccc1)C([2H])([2H])[C@@H](CO)N(CC(C)C)S(=O)(=O)c1ccc2ncsc2c1` [Example 21, N-(2-{(3S)-3-[(1,3-benzothiazol-6-ylsulfonyl)(2-methylpropyl)amino]-1-d2-2-d2-4-hydroxybutyl}phenyl)-Nα-(methoxycarbonyl)-β-phenyl-L-phenylalaninamide], 8.43.
Turning to `[2H]C([2H])([2H])C([2H])(C([2H])([2H])[2H])C([2H])([2H])N([C@H](CO)C([2H])([2H])C([2H])([2H])c1ccccc1NC(=O)[C@@H](NC(=O)OC)C(c1ccccc1)c1ccccc1)S(=O)(=O)c1ccc2ncsc2c1` [Example 22, N-(2-{(3S)-3-[(1,3-benzothiazol-6-ylsulfonyl)(2-methylpropyl-d7)amino]-1-d2-2-d2-4-hydroxybutyl}phenyl)-Nα-(methoxycarbonyl)-β-phenyl-L-phenylalaninamide], the negative-log IC50 (pIC50) was 8.77.
For the molecule `[2H]C([2H])([2H])C([2H])([2H])N([C@H](CO)Cc1cccc(NC(=O)[C@@H](NC(=O)OC)C(c2ccccc2)c2ccccc2)c1)S(=O)(=O)c1ccc(N)cc1` [Example 33, N-{3-[(2S)-2-{[(4-aminophenyl)sulfonyl](ethyl-d5)amino}-3-hydroxypropyl]phenyl}-Nα-(methoxycarbonyl)-β-phenyl-L-phenylalaninamide], the pIC50 is 7.30.
In the case of `COC(=O)N[C@H](C(=O)Nc1cccc(C[C@@H](CO)N(C(C)C)S(=O)(=O)c2ccc(N)cc2)c1)C(c1ccccc1)c1ccccc1` [Example 34, N-{3-[(2S)-2-{[(4-aminophenyl)sulfonyl](propan-2-yl)amino}-3-hydroxypropyl)phenyl}-Nα-(methoxycarbonyl)-β-phenyl-L-phenylalaninamide], the negative-log IC50 (pIC50) was 7.38.
For `COC(=O)N[C@H](C(=O)Nc1cccc(C[C@@H](CO)N(C(C)C)S(=O)(=O)c2ccc(CO)cc2)c1)C(c1ccccc1)c1ccccc1` [Example 35, N-(3-{(2S)-3-hydroxy-2[{[4-(hydroxymethyl)phenyl]sulfonyl}(propan-2-yl)amino]propyl}phenyl)-Nα-(methoxycarbonyl)-β-phenyl-L-phenylalaninamide] the value was 7.72.
